The record followed here is ChEMBL document CHEMBL1201862, “PubChem BioAssay data set” (2004).

Among the test systems are 786-0; A498; ACHN; EKVX; HCT-116; HT-29; IGROV-1; KM12; MDA-MB-231; NCI-H460; NCI/ADR-RES; OVCAR-3; OVCAR-4; SK-MEL-28; SN12C; SNB-19; SW-620; T47D; U-251.
Common to all, as to assay: inhibition of tumour cell growth, NCI panel, 48 h

Each structure is given as a SMILES string.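 Following 48 hours of exposure in 96-well plates, responses at five concentrations were used to interpolate endpoints linearly. GI50 = concentration required for 50% inhibition of growth.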 Calls of active or inactive are those of the source. Rule as the data show it: active = GI50 up to about 1.1 µM and inactive = higher.

Take `O=C(NCCNCCNC(=O)c1cc(-c2ccccc2)nc2ccccc12)c1cc(-c2ccccc2)nc2ccccc12`: the GI50 with 786-0 is 1.69 µM (inactive); in the assay on A498, 2.7 µM (inactive); with ACHN, 2.14 µM (inactive); in the assay with EKVX, 4.47 µM (inactive); in the assay on HCT-116, 1.7 µM (inactive); with HT-29, 1.81 µM (inactive). For the same molecule, the GI50 was 2.52 µM (inactive) with IGROV-1; 1.91 µM (inactive) in the assay on KM12; 2.51 µM (inactive) in the assay on MDA-MB-231; 1.5 µM (inactive) in the assay on NCI-H460; 1.76 µM (inactive) in the assay on NCI/ADR-RES; 2.24 µM (inactive) with OVCAR-3. Moreover, the GI50 with OVCAR-4 is 2 µM (inactive); in the assay with SK-MEL-28, 1.77 µM (inactive); in the assay on SN12C, 2.37 µM (inactive); with SNB-19, 3.21 µM (inactive); with SW-620, 1.75 µM (inactive); with T47D, 2.72 µM (inactive). The GI50 in the assay with U-251 was 2.08 µM (inactive).
For `C=CCC1(C)CCCN(Cc2ccccc2)C1=O` (stereo not given), the GI50 in the assay with 786-0 is > 10 µM (inactive); in the assay on A498 it was 1.32 µM (inactive); in the assay on ACHN it was > 10 µM (inactive); with EKVX it was > 10 µM (inactive); with HCT-116 it was > 10 µM (inactive); in the assay with HT-29, > 10 µM (inactive). The GI50 in the assay on IGROV-1 was 0.863 µM (active); with KM12, > 10 µM (inactive); in the assay with MDA-MB-231, > 10 µM (inactive); with NCI-H460 it was > 10 µM (inactive); with NCI/ADR-RES it was > 10 µM (inactive); in the assay on OVCAR-3, > 10 µM (inactive). Besides, the GI50 with OVCAR-4, in the assay on SK-MEL-28, with SN12C, with SNB-19, with SW-620 and in the assay with T47D was > 10 µM (inactive) each time. For the same molecule, in the assay with U-251, the GI50 is > 10 µM (inactive).
With `COc1nc2ncc([C@@H](O)[C@H](O)CO)nc2c(=O)[nH]1`, the GI50 with 786-0, in the assay with A498, with ACHN, in the assay on EKVX, in the assay on HCT-116 and with HT-29 was > 100 µM (inactive) throughout. Further, the GI50 with IGROV-1, in the assay with KM12, in the assay on MDA-MB-231, in the assay with NCI-H460, with NCI/ADR-RES and in the assay on OVCAR-3 was > 100 µM (inactive) in each case. The GI50 with OVCAR-4, in the assay on SK-MEL-28, in the assay on SN12C, in the assay on SNB-19, in the assay on SW-620 and in the assay on T47D was > 100 µM (inactive) throughout. Further, the GI50 in the assay with U-251 is > 100 µM (inactive).
Turning to `O=C(CSCC(=O)N/N=C/c1cccs1)N/N=C/c1cccs1`, the GI50 was 47.6 µM (inactive) with 786-0; > 100 µM (inactive) with A498; 64.4 µM (inactive) in the assay with ACHN; 61.5 µM (inactive) in the assay on EKVX; > 100 µM (inactive) in the assay with HCT-116; > 100 µM (inactive) in the assay on HT-29. Besides, the GI50 in the assay with IGROV-1 is 66.7 µM (inactive); with KM12, > 100 µM (inactive); in the assay on MDA-MB-231, 75.9 µM (inactive); in the assay with NCI-H460, > 100 µM (inactive); with NCI/ADR-RES it was 40 µM (inactive); with OVCAR-3 it was 38.6 µM (inactive). Also, the GI50 in the assay with OVCAR-4 was 45.2 µM (inactive); in the assay with SK-MEL-28 it was > 100 µM (inactive); in the assay with SN12C, > 100 µM (inactive); in the assay with SNB-19 it was 56.1 µM (inactive); in the assay with SW-620, > 100 µM (inactive); with T47D it was > 100 µM (inactive). Moreover, the GI50 in the assay on U-251 was > 100 µM (inactive).
In the case of `CCCC1CC(=O)NC(=O)C1C(=O)OC(C)(C)C` (stereo not given), the GI50 in the assay with 786-0, with A498, in the assay on ACHN, with EKVX, in the assay on HCT-116 and with HT-29 was > 100 µM (inactive) in each case. The GI50 in the assay on IGROV-1, with KM12, with MDA-MB-231, in the assay with NCI-H460, with NCI/ADR-RES and in the assay on OVCAR-3 was > 100 µM (inactive) in each case. Moreover, the GI50 in the assay with OVCAR-4, with SK-MEL-28, with SN12C, with SNB-19, with SW-620 and in the assay with T47D was > 100 µM (inactive) each time. The GI50 in the assay on U-251 is > 100 µM (inactive).
`CCOc1cc2c(NCCCN(CCO)CCO)ncnc2c(OCC)c1OCC`: the GI50 in the assay with 786-0 was > 100 µM (inactive); with A498, > 73.5 µM (inactive); with ACHN, > 100 µM (inactive); in the assay with EKVX, > 100 µM (inactive); in the assay with HCT-116, > 100 µM (inactive); in the assay on HT-29, > 65.6 µM (inactive). Further, the GI50 with IGROV-1 was > 100 µM (inactive); in the assay on KM12 it was > 100 µM (inactive); with MDA-MB-231, > 93.1 µM (inactive); in the assay on NCI-H460, > 100 µM (inactive); with NCI/ADR-RES it was > 100 µM (inactive); in the assay with OVCAR-3 it was > 100 µM (inactive). In addition, the GI50 in the assay with OVCAR-4 was > 88.5 µM (inactive); in the assay on SK-MEL-28 it was > 62.5 µM (inactive); in the assay on SN12C, > 100 µM (inactive); in the assay with SNB-19, > 100 µM (inactive); in the assay on SW-620, > 100 µM (inactive); in the assay on T47D, > 90.4 µM (inactive). Moreover, the GI50 with U-251 was > 100 µM (inactive).
Turning to `COc1ccc2c(c1)CCC(CN1CCN(CCOC(c3ccc(F)cc3)c3ccc(F)cc3)CC1)=C2`, the GI50 in the assay on 786-0 is 11.9 µM (inactive); in the assay with A498, 8.36 µM (inactive); with ACHN, 13.3 µM (inactive); with EKVX it was 6.07 µM (inactive); in the assay on HCT-116 it was 7.26 µM (inactive); with HT-29, 4.53 µM (inactive). The GI50 in the assay on IGROV-1 is 28.1 µM (inactive); in the assay on KM12 it was 15.1 µM (inactive); in the assay with MDA-MB-231, 14.1 µM (inactive); in the assay on NCI-H460, 12.4 µM (inactive); in the assay with NCI/ADR-RES, 11.8 µM (inactive); in the assay on OVCAR-3 it was 16.9 µM (inactive). Besides, the GI50 in the assay on OVCAR-4 is 24.8 µM (inactive); with SK-MEL-28 it was 21.3 µM (inactive); in the assay with SN12C it was 11.1 µM (inactive); in the assay on SNB-19, 42.5 µM (inactive); in the assay on SW-620, 22.9 µM (inactive); with T47D, 8.45 µM (inactive). Also, the GI50 in the assay on U-251 was 14.8 µM (inactive).
With `CCCCN1C(=O)C2Cc3c([nH]c4ccccc34)C(c3cccc(O)c3)N2C1=O` (stereo not given), the GI50 with 786-0 is 18.9 µM (inactive); in the assay with A498 it was 18.5 µM (inactive); in the assay with ACHN, 19.8 µM (inactive); in the assay on EKVX, 17.9 µM (inactive); in the assay on HCT-116 it was 18.7 µM (inactive); in the assay with HT-29, 20.9 µM (inactive). The GI50 in the assay on IGROV-1 is 17.5 µM (inactive); in the assay with KM12 it was 19.4 µM (inactive); in the assay with MDA-MB-231, 15.5 µM (inactive); in the assay on NCI-H460 it was 20 µM (inactive); in the assay on NCI/ADR-RES, 18.5 µM (inactive); with OVCAR-3, 16.3 µM (inactive). Besides, the GI50 in the assay with OVCAR-4 was 18.7 µM (inactive); with SK-MEL-28 it was 19 µM (inactive); in the assay with SN12C, 17.9 µM (inactive); with SNB-19, 19.1 µM (inactive); in the assay on SW-620, 19.9 µM (inactive); in the assay on T47D, 24.4 µM (inactive). The GI50 in the assay with U-251 is 19 µM (inactive).
For `C=C(C)C1Cc2c(cc3c(c2O)c(=O)c2ccccc2n3C)O1` (stereo not given), the GI50 with 786-0 was 1.51 µM (inactive); in the assay on A498, 10.1 µM (inactive); in the assay with ACHN, 5.14 µM (inactive); with EKVX, 17.5 µM (inactive); in the assay on HCT-116, 2.03 µM (inactive); in the assay on HT-29 it was 2.61 µM (inactive). Besides, the GI50 in the assay with IGROV-1 is 1.87 µM (inactive); in the assay with KM12, 1.95 µM (inactive); in the assay on MDA-MB-231, 2.2 µM (inactive); with NCI-H460, 3.1 µM (inactive); in the assay on NCI/ADR-RES, 2.3 µM (inactive); in the assay with OVCAR-3, 12.6 µM (inactive). Further, the GI50 is 6.81 µM (inactive) with OVCAR-4; 10.7 µM (inactive) in the assay with SK-MEL-28; 2.27 µM (inactive) in the assay with SN12C; 2.61 µM (inactive) in the assay on SNB-19; 1.81 µM (inactive) in the assay with SW-620; 6.67 µM (inactive) in the assay on T47D. In the assay on U-251, the GI50 was 3.33 µM (inactive).
On to `O=C1Nc2c(Cl)cc(Cl)cc2/C1=N/Nc1ccccc1[N+](=O)[O-]`, for which the GI50 with 786-0 is 5.75 µM (inactive); in the assay with A498, 55.7 µM (inactive); in the assay with ACHN it was 11.6 µM (inactive); with EKVX, 5.7 µM (inactive); with HCT-116, 38.2 µM (inactive); in the assay on HT-29, > 100 µM (inactive). Also, the GI50 in the assay on IGROV-1 was 23.8 µM (inactive); in the assay with KM12, 88.9 µM (inactive); in the assay on MDA-MB-231 it was 18.3 µM (inactive); in the assay with NCI-H460, 54.5 µM (inactive); with NCI/ADR-RES, 40.3 µM (inactive); in the assay on OVCAR-3, 50.7 µM (inactive). The GI50 was 29 µM (inactive) in the assay with OVCAR-4; 75.7 µM (inactive) in the assay with SK-MEL-28; 85.9 µM (inactive) in the assay on SN12C; 23.7 µM (inactive) in the assay with SNB-19; > 100 µM (inactive) with SW-620; 70.5 µM (inactive) with T47D. In the assay with U-251, the GI50 is 6.85 µM (inactive).
